Our source for the EC50 values is patent publication US9556139B2, “6-substituted phenoxychroman carboxylic acid derivatives” (Array BioPharma Inc., priority 2008, dated 2017).

The first assay deals with human DP2 (Homo sapiens (Human), UniProt Q9Y5Y4). Nature of the assay: DP-2 Binding Inhibition Assay (3H-PGD2 binding to membranes of K562 cells expressing DP2). The note with it: EC50 (nM) 0.1% BSA, inhibition of 3H-PGD2 binding, 0.1% BSA. The gist of the method: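 Membranes from K562 stably expressing DP2, incubated 60 min at room temperature with ³H-PGD2 and compound in Tris pH 7.4 buffer with 0.1% BSA, 1% HSA or 4% HSA; filtration read-out. Nonspecific binding: 1 μM unlabeled PGD2 or 5 μM known antagonist. EC50 from 4-parameter logistic fit.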
Chain of human DP2 (Q9Y5Y4 whole entry): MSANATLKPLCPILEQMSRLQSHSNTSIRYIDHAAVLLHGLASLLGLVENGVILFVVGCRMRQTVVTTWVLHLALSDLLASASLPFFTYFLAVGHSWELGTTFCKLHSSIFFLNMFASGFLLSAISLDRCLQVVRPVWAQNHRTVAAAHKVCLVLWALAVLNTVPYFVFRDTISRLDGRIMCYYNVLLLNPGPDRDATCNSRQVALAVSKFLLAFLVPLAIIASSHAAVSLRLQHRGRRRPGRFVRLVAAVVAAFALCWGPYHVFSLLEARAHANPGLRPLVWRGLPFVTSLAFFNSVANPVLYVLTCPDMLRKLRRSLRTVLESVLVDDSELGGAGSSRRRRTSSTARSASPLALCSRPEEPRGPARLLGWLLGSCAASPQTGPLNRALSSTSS
In turn, `O=C(NCCc1ccc(Cl)cc1O)c1ccc(Oc2cc3c(cc2Cl)C(C(=O)O)CCO3)cc1` (stereo not drawn) [Example 233, 6-Chloro-7-(4-(4-chloro-2-hydroxyphenethylcarbamoyl)phenoxy)chroman-4-carboxylic acid] showed a concentration giving a half-maximal response (EC50) of 11.1 nM.

Still in this assay, the particulars now being: read-out: EC50 (Nm) 1% HSA; inhibition of 3H-PGD2 binding, 1% HSA.
With `O=C(NCCc1ccc(Cl)cc1)c1ccc(Oc2ccc3c(c2)OCCC3C(=O)O)cc1` (stereo not drawn) [Example 128, 7-(4-(4-chlorophenyethylcarbamoyl)phenoxy)chroman-4-carboxylic acid], the EC50 was determined as 108 nM.
As for `N#Cc1cc2c(cc1Oc1ccc(C(=O)NOCc3ccc(Cl)cc3)cc1)OCCC2C(=O)O` (stereo not drawn) [Example 7, 7-(4-(4-Chlorobenzyloxycarbamoyl)phenoxy)-6-cyanochroman-4-carboxylic acid], the concentration for a half-maximal effect (EC50) came out at 19 nM.
For the compound `C[C@@H](CNC(=O)c1ccc(Oc2cc3c(cc2C#N)C(C(=O)O)CCO3)cc1)c1ccccc1` (stereo partly drawn) [Example 130, 6-Cyano-7-(4-((R)-2-phenylpropylcarbamoyl)phenoxy)chroman-4-carboxylic acid], the EC50 stood at 25.7 nM.
Consider `N#Cc1cc2c(cc1Oc1ccc(C(=O)NC3CCc4ccccc4C3)cc1)OCCC2C(=O)O` (stereo not drawn) [Example 72, 6-Cyano-7-(4-(1,2,3,4-tetrahydronaphthalen-2-ylcarbamoyl)phenoxy)chroman-4-carboxylic acid], for which the EC50 worked out at 36.4 nM.
On to `N#Cc1cc2c(cc1Oc1ccc(C(=O)NC3CC3c3ccccc3)cc1)OCCC2C(=O)O` (stereo not drawn) [Example 47, 7-(4-((2-Phenylcyclopropyl)carbamoyl)phenoxy)-6-cyano-3,4-dihydro-2H-chromene-4-carboxylic acid], for which the EC50 is 12.1 nM.
With `N#Cc1cc2c(cc1Oc1ccc(C(=O)NCCc3ccccc3)cc1)OCCC2C(=O)O` (stereo not drawn) [Example 5, 6-Cyano-7-(4-(phenethylcarbamoyl)phenoxy)chroman-4-carboxylic acid], the EC50 turned out to be 37.4 nM.
On the same count and under the same terms, with `C[C@H](CNC(=O)c1ccc(Oc2cc3c(cc2C#N)C(C(=O)O)CCO3)cc1)c1ccccc1` (stereo partly drawn) [Example 131, 6-Cyano-7-(4-((S)-2-phenylpropylcarbamoyl)phenoxy)chroman-4-carboxylic acid] the figure was 59.3 nM; with `N#Cc1cc2c(cc1Oc1ccc(C(=O)NC3CC3c3ccc(Cl)cc3)cc1)OCCC2C(=O)O` (stereo not drawn) [Example 51, 7-(4-((2-(4-Chlorophenyl)cyclopropyl)carbamoyl)phenoxy)-6-cyano-3,4-dihydro-2H-chromene-4-carboxylic acid], 12.1 nM.

The assay is the same for the next values; noted with them: read-out: EC50 (nM) 4% HSA; inhibition of 3H-PGD2 binding, 4% HSA.
`O=C(NC1CCC(c2ccc(Cl)c(Cl)c2)C1)c1ccc(Oc2cc3c(cc2Cl)C(C(=O)O)CCO3)cc1` (stereo not drawn) [Example 173, Sodium 6-chloro-7-(4-(3-(3,4-dichlorophenyl)cyclopentylcarbamoyl)phenoxy)chroman-4-carboxylate]: the EC50 was determined as 327 nM.
In the case of `O=C(NCCc1ccc(F)cc1)c1ccc(Oc2cc3c(cc2Cl)C(C(=O)O)CCO3)cc1` (stereo not drawn) [Example 85, Sodium 6-chloro-7-(4-(4-fluorophenethylcarbamoyl)phenoxy)chroman-4-carboxylate], the EC50 amounted to 344 nM.
As for `O=C(NCCc1ccc(Cl)cc1-c1ccccc1Cl)c1ccc(Oc2cc3c(cc2Cl)C(C(=O)O)CCO3)cc1` (stereo not drawn) [Example 33, Sodium 6-chloro-7-(4-(2-(2′,5-dichlorobiphenyl-2-yl)ethylcarbamoyl)phenoxy)chroman-4-carboxylate], the EC50 was 126 nM.
For `N#Cc1cc2c(cc1Oc1ccc(C(=O)Nc3ccc(-c4ccccc4)cc3)cc1)OCCC2C(=O)O` (stereo not drawn) [Example 68, 7-(4-(Biphenyl-4-ylcarbamoyl)phenoxy)-6-cyanochroman-4-carboxylic acid], the concentration for a half-maximal effect (EC50) is 206 nM.
Same read-out and setting: in the case of `O=C(NCCc1ccc(Cl)cc1)c1ccc(Oc2ccc3c(c2)OCCC3C(=O)O)cc1` (stereo not drawn) [Example 128, 7-(4-(4-chlorophenyethylcarbamoyl)phenoxy)chroman-4-carboxylic acid] it was 980 nM.
Turning to `O=C(NCCc1ccccc1OC(F)(F)F)c1ccc(Oc2cc3c(cc2Cl)C(C(=O)O)CCO3)cc1` (stereo not drawn) [Example 64, Sodium 6-chloro-7-(4-(2-(trifluoromethoxy)phenethylcarbamoyl)phenoxy)chroman-4-carboxylate], the EC50 worked out at 153 nM.
On the same count and under the same terms, with `O=C(NC1CCC(c2cccc(F)c2)C1)c1ccc(Oc2cc3c(cc2Cl)C(C(=O)O)CCO3)cc1` (stereo not drawn) [Example 171, Sodium 6-chloro-7-(4-(3-(3-fluorophenyl)cyclopentylcarbamoyl)phenoxy)chroman-4-carboxylate] the figure was 333 nM.
Same read-out and setting: in the case of `O=C(NCCc1ccc(-c2ccccc2Cl)cc1)c1ccc(Oc2cc3c(cc2Cl)C(C(=O)O)CCO3)cc1` (stereo not drawn) [Example 26, Sodium 6-chloro-7-(4-(2-(2′-chlorobiphenyl-4-yl)ethylcarbamoyl)phenoxy)chroman-4-carboxylate] it was 160 nM; in that of `Cc1ccc(SCCNC(=O)c2ccc(Oc3cc4c(cc3Cl)C(C(=O)O)CCO4)cc2)cc1` (stereo not drawn) [Example 112, Sodium 6-chloro-7-(4-(2-(p-tolylthio)ethylcarbamoyl)phenoxy)chroman-4-carboxylate], 4190 nM; in that of `O=C(NCCc1ccc(C2CC2)cc1)c1ccc(Oc2cc3c(cc2Cl)C(C(=O)O)CCO3)cc1` (stereo not drawn) [Example 24, Sodium 6-chloro-7-(4-(4-cyclopropylphenethylcarbamoyl)phenoxy)chroman-4-carboxylate], 482 nM.
`COC(CNC(=O)c1ccc(Oc2cc3c(cc2Cl)C(C(=O)O)CCO3)cc1)c1ccc(Cl)cc1` (stereo not drawn) [Example 188, Sodium 6-chloro-7-(4-(2-(4-chlorophenyl)-2-methoxyethylcarbamoyl)phenoxy)chroman-4-carboxylate]: the EC50 came to 759 nM.
On to `O=C(NCCC1CCCC1)c1ccc(Oc2cc3c(cc2Cl)C(C(=O)O)CCO3)cc1` (stereo not drawn) [Example 186, Sodium 6-chloro-7-(4-(2-cyclopentylethylcarbamoyl)phenoxy)chroman-4-carboxylate], for which the EC50 worked out at 538 nM.
Turning to `O=C(NCCc1ccc(Br)cc1Cl)c1ccc(Oc2cc3c(cc2Cl)C(C(=O)O)CCO3)cc1` (stereo not drawn) [Example 28, Sodium 7-(4-(4-bromo-2-chlorophenethylcarbamoyl)phenoxy)-6-chlorochroman-4-carboxylate], the half-maximal effective concentration (EC50) is 123 nM.
Consider `O=C(NCCc1ccccc1-c1ccccc1)c1ccc(Oc2cc3c(cc2Cl)C(C(=O)O)CCO3)cc1` (stereo not drawn) [Example 92, Sodium 7-(4-(2-(biphenyl-2-yl)ethylcarbamoyl)phenoxy)-6-chlorochroman-4-carboxylate], for which the EC50 was found to be 111 nM.
Turning to `O=C(NCCSc1ccc(Cl)cc1)c1ccc(Oc2cc3c(cc2Cl)C(C(=O)O)CCO3)cc1` (stereo not drawn) [Example 113, Sodium 6-chloro-7-(4-(2-(4-chlorophenylthio)ethylcarbamoyl)phenoxy)chroman-4-carboxylate], the EC50 worked out at 2380 nM.
As for `O=C(NC1COC2(CCCC2)C1)c1ccc(Oc2cc3c(cc2Cl)C(C(=O)O)CCO3)cc1` (stereo not drawn) [Example 187, Sodium 7-(4-(1-oxaspiro[4.4]nonan-3-ylcarbamoyl)phenoxy)-6-chlorochroman-4-carboxylate], the EC50 was determined as 649 nM.
In the case of `O=C(NCC1CCc2cc(Cl)ccc21)c1ccc(Oc2cc3c(cc2Cl)C(C(=O)O)CCO3)cc1` (stereo not drawn) [Example 231, 6-chloro-7-(4-((5-chloro-2,3-dihydro-1H-inden-1-yl)methylcarbamoyl)phenoxy) chroman-4-carboxylic acid], the concentration giving a half-maximal response (EC50) was found to be 225 nM.
On the same count and under the same terms, in the case of `Cc1ccc(CCNC(=O)c2ccc(Oc3cc4c(cc3Cl)C(C(=O)O)CCO4)cc2)c(C)c1` (stereo not drawn) [Example 21, Sodium 6-chloro-7-(4-(2,4-dimethylphenethylcarbamoyl)phenoxy)chroman-4-carboxylate] it was 169 nM; in that of `O=C(NCCCc1ccccc1)c1ccc(Oc2cc3c(cc2Cl)C(C(=O)O)CCO3)cc1` (stereo not drawn) [Example 78, Sodium 6-chloro-7-(4-(3-phenylpropylcarbamoyl)phenoxy)chroman-4-carboxylate], 681 nM; in that of `O=C(Nc1ccc(F)c(-c2ccc(Cl)cc2)c1)c1ccc(Oc2cc3c(cc2Cl)C(C(=O)O)CCO3)cc1` (stereo not drawn) [Example 71, 6-Chloro-7-(4-(4′-chloro-6-fluorobiphenyl-3-ylcarbamoyl)phenoxy)chroman-4-carboxylic acid], 119 nM.
Regarding `O=C(NC1CN(c2cccc(C(F)(F)F)c2)C1)c1ccc(Oc2cc3c(cc2Cl)C(C(=O)O)CCO3)cc1` (stereo not drawn) [Example 121, Sodium 6-chloro-7-(4-(1-(3-(trifluoromethyl)phenyl)azetidin-3-ylcarbamoyl)phenoxy)chroman-4-carboxylate], the EC50 stood at 4320 nM.
Regarding `O=C(NCCc1ccc(C(F)(F)F)cc1C1CC1)c1ccc(Oc2cc3c(cc2Cl)C(C(=O)O)CCO3)cc1` (stereo not drawn) [Example 232, 6-chloro-7-(4-(2-cyclopropyl-4-(trifluoromethyl)phenethylcarbamoyl)phenoxy) chroman-4-carboxylic acid], the concentration for a half-maximal effect (EC50) is 46.5 nM.
On the same count and under the same terms, in the case of `O=C(NC1CCN(c2cccc(Cl)c2)C1)c1ccc(Oc2cc3c(cc2Cl)C(C(=O)O)CCO3)cc1` (stereo not drawn) [Example 119, Sodium 6-chloro-7-(4-(1-(3-chlorophenyl)pyrrolidin-3-ylcarbamoyl)phenoxy)chroman-4-carboxylate] it was 206 nM.
On the same count and under the same terms, in the case of `O=C(NCC(O)c1ccc(Cl)cc1)c1ccc(Oc2cc3c(cc2Cl)C(C(=O)O)CCO3)cc1` (stereo not drawn) [Example 184, Sodium 6-chloro-7-(4-(2-(4-chlorophenyl)-2-hydroxyethylcarbamoyl)phenoxy)chroman-4-carboxylate] it was 824 nM.
On the same count and under the same terms, with `O=C(NCCCCc1ccc(Cl)cc1Cl)c1ccc(Oc2cc3c(cc2Cl)C(C(=O)O)CCO3)cc1` (stereo not drawn) [Example 19, Sodium 6-chloro-7-(4-(4-(2,4-dichlorophenyl)butylcarbamoyl)phenoxy)chroman-4-carboxylate] the figure was 638 nM.
Consider `O=C(NC1CCC(c2cccc(C(F)(F)F)c2)C1)c1ccc(Oc2cc3c(cc2Cl)C(C(=O)O)CCO3)cc1` (stereo not drawn) [Example 170, Sodium 6-chloro-7-(4-(3-(3-(trifluoromethyl)phenyl)cyclopentylcarbamoyl)phenoxy)chroman-4-carboxylate], for which the EC50 is 298 nM.
Same read-out and setting: with `N#Cc1cc2c(cc1Oc1ccc(C(=O)NC3CC3c3ccc(Cl)cc3)cc1)OCCC2C(=O)O` (stereo not drawn) [Example 51, 7-(4-((2-(4-Chlorophenyl)cyclopropyl)carbamoyl)phenoxy)-6-cyano-3,4-dihydro-2H-chromene-4-carboxylic acid] the figure was 14.8 nM.
